In patent USRE49128E1, “Hydroxyl purine compounds and applications thereof” (GUANGDONG RAYNOVENT BIOTECH CO., LTD., priority 2014, dated 2022):

How the values were obtained:
[1] = Pharmacokinetic evaluation of compounds in SD rats; type: in vivo, Sprague Dawley rats; conditions: male, Sprague-Dawley, rat, plasma, single intravenous injection and oral administration; for bioavailability: read-out: Bioavailability F; for clearance: read-out: Clearance rate; for AUC: read-out: Concentration integration AUC; for half-life: read-out: Half-life T1/2 (converted)
Description: Experimental objective: The pharmacokinetics of test compounds in SD rats.
Sprague Dawley rats (male, 200-300 g, 7-9 weeks old, Shanghai Slack).
The pharmacokinetic characteristics of rodents after intravenous and oral administration of the compounds were tested according to the standard protocol, in the experiment, the candidate compound was formulated into a clear solution, and the rats were given single intravenous injection and oral administration. Intravenous and oral solvents are a certain proportion of hydroxypropyl βcyclodextrin aqueous solution or physiological saline solution. Blood samples within 24 hours were collected, centrifuged (3000 g) for 15 minutes, the supernatant were separated to obtain the plasma samples, the protein was precipitated by adding a 4 times volume of acetonitrile solution that containing the internal standard, centrifuged and the supernatant was then centrifuged after adding equal volume of water, then the supernatant was injected, the plasma concentration was quantitatively analyzed by LC-MS/MS analysis, and pharmacokinetics parameters such as peak concentration, peak time, clearance rate, half-life, drug area under the curve, bioavailability etc. are calculated.

[2] = biological target: T1, recombinant full-length PDE2A protein (Homo sapiens, UniProt O00408); test: Evaluation of PDE2 phosphodiesterase inhibitory activity in vitro (fluorescence polarization, Transcreener AMP2/GMP2); type: biochemical; conditions: IC50 classes; substrate 1 μM cGMP; room temperature one hour
T1 construct: Expression of recombinant full-length PDE2A protein in insect Sf9 cells; GST (N); made in house; host or cells: insect Sf9 cells (baculovirus)
T1 sequence (O00408 whole entry, species assumed): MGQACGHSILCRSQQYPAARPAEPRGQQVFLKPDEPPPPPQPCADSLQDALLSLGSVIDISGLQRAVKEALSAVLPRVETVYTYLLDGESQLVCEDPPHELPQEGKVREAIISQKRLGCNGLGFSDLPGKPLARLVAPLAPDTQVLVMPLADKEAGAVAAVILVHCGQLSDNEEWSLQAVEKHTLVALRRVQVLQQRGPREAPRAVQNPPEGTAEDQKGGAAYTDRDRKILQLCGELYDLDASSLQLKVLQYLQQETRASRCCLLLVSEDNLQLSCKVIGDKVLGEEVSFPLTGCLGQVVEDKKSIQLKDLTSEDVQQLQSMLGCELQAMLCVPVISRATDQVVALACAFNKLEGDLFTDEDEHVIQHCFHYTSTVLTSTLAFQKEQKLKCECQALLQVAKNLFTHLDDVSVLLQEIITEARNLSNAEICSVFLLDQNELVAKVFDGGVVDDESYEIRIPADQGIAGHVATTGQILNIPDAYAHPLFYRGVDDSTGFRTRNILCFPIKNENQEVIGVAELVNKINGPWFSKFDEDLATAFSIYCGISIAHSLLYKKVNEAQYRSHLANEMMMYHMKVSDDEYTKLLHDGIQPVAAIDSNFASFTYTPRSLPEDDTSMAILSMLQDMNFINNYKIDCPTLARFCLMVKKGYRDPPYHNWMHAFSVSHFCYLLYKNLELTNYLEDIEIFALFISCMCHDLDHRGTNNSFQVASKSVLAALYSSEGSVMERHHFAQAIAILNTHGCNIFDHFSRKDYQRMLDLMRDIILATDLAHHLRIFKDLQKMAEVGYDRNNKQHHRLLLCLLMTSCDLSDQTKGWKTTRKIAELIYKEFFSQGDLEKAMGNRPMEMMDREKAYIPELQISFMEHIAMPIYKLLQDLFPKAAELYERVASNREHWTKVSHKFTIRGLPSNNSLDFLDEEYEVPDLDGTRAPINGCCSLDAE
Description: Experimental objective: The substituted Alexa Fluor 633 fluorescent dye on the AMP/GMP antibodies was detected by the fluorescence polarization analysis to determine the concentration of AMP/GMP produced in the reaction system, which was used to calculate the IC50 values of the test compounds against PDE2 phosphodiesterase.
The measured buffer solution: 10 mM Tris-HCl, pH 7.5, 5 mM MgCl2, 0.01% Brij 35, 1 mM DTT, and 1% DMSO.
Enzyme: Expression of recombinant full-length PDE2A protein in insect Sf9 cells using N-terminal GST-tag with baculovirus.
Transcreener® AMP^2/GMP^2 antibody, AMP2/GMP2 AlexaFluor 633 fluorescent dye.
The enzyme solution was prepared using freshly prepared buffer solution, and then added to the reaction holes, the DMSO solutions of the test compounds were added by the Echo550 non-contact nanoliter acoustic pipetting system, and then pre-incubated at room temperature for 10 minutes, the reaction was initiated by the addition of the substrate (1 μM cGMP), and then reacted at room temperature for one hour. And then the detection system (Transcreener® AMP^2/GMP^2 antibody, AMP2/GMP2 AlexaFluor 633 fluorescent dye) was added, reacted at room temperature for 90 minutes, the fluorescence polarization was detected using Ex/Em 620/688.
The fluorescence polarization intensity was converted to nM concentration by AMP/GMP standard curve, The relative enzyme activity relative to DMSO blank was calculated, IC50 values and curves were calculated using Prism software packages (GraphPad Software, San Diego Calif., USA).

TNF-α = test: Effect of compounds on TNF-α in LPS-induced blood of rats in vitro (ELISA); type: cell-based, Sprague Dawley rats; conditions: compound 100 μM; LPS-induced rat blood, 5 hours; plasma TNF-α by ELISA; read-out: TNF-α inhibition ratio
Description: Experimental objective: Detect the effects of compounds on TNF-α in LPS-induced blood of rats in vitro, evaluate the inhibitory effect of the compounds on TNF-α in LPS-induced blood of rats.
Sprague Dawley rats (male, 210-260 g, 8-10 weeks old, Shanghai Slack);
Rat TNF-alpha Quantikine ELISA Kit (R&D, #SRTA00).
Test compounds solutions with a concentration of 1 mM were prepared, 40 μL of which (the final concentration of the compound was 100 μM) was respectively added to 48-hole cell culture plates. Rats were anesthetized with isoflurane, heart blood was collected (heparin was used to anticoagulation). The blood was added to the 48-hole plates holding the test compounds, 320 μL per hole. The 48-hole plates were placed in a cell incubator and incubated for 30 minutes, 40 μL LPS solution was added (100 μg/mL), mixed and placed in the incubator and continued to incubate. the 48-hole plates was taken out after 5 hours, the blood samples were transferred to 1.5 mL centrifuge tubes, centrifuged in a centrifuge (4,500 rpm, 4° C., 5 minutes), the upper plasma were separated, frozen after storage and stored in a refrigerator at −80° C. The levels of TNF-α in plasma samples were measured using the R & D ELISA kit according to the kit instructions the nest day.

Row | SMILES | bioavailability [1] [%] | clearance [1] [mL/min/kg] | AUC [1] [µM·h] | half-life [1] [h] | IC50 [2] [µM] | inhibition at 100 µM (TNF-α) [%]
1 | CCC(O)(CC)CCCCn1c(=O)c2c(ncn2C)n(C)c1=O [Embodiment 2, 1-(5-Ethyl-5-hydroxyheptyl)-3,7-dimethyl-1H-purine-2,6(3H,7H)-dione] | 34.2 | 63.6 | 0.902 | 0.481 | 1 to 10 | 
2 | Cn1cnc2c1c(=O)n(CC1CCC(O)(C(F)(F)F)CC1)c(=O)n2C (single isomer, unassigned) [Embodiment 12 isomer 1] |  |  |  |  | 10 to 50 | 60 to 80
3 | C[C@H](O)CNCCn1c(=O)c2c(ncn2C)n(C)c1=O [Embodiment 40, (S)-1-(2-((2-Hydroxypropyl)amino)ethyl)-3,7-dimethyl-1H-purine-2,6(3H,7H)-dione] |  |  |  |  |  | 60 to 80
4 | Cn1c(=O)n(CC2CCC(O)(C(F)(F)F)CC2)c(=O)c2c1ncn2CC(F)(F)F (stereo not drawn) [Embodiment 44, 1-((4-Hydroxy-4-(trifluoromethyl)cyclohexyl)methyl)-3-methyl-7-(2,2,2-trifluoroethyl)-1H-purine-2,6(3H,7H)-dione] |  |  |  |  | 1 to 10 | 80 to 100
5 | Cn1c(=O)n(CC2CCC(O)(C(F)(F)F)CC2)c(=O)c2c1ncn2CC(F)(F)F (single isomer, unassigned) [Embodiment 45 isomer 2, 1-((4-Hydroxy-4-(trifluoromethyl)cyclohexyl)methyl)-3-methyl-7-(2,2,2-trifluoroethyl)-1H-purine-2,6(3H,7H)-dione] | 17.1 | 58.4 | 1.29 | 6.19 | 1 to 10 | 
6 | Cn1c(=O)n(CC2CCC(O)(C(F)(F)F)CC2)c(=O)c2c1ncn2CC1CC1 (stereo not drawn) [Embodiment 49, 7-(Cyclopropylmethyl)-1-((4-hydroxy-4-(trifluoromethyl)cyclohexyl)methyl)-3-methyl-1H-purine-2,6(3H,7H)-dione] |  |  |  |  | 1 to 10 | 80 to 100
7 | Cn1c(=O)n(CC2CCC(C)(O)CC2)c(=O)c2c1ncn2CC1CC1 (single isomer, unassigned) [Embodiment 51 isomer 2] | 47.9 | 54.4 | 4.39 | 0.793 | 1 to 10 | 80 to 100
8 | Cn1cnc2c1c(=O)n(CCCCC(C)(O)C(F)(F)F)c(=O)n2C (stereo not drawn) [Embodiment 1, 3,7-Dimethyl-1-(6,6,6-trifluoro-5-hydroxy-5-methylhexyl)-1H-purine-2,6(3H,7H)-dione] | 59.7 | 54.7 | 1.91 | 0.659 | 10 to 50 | 60 to 80

Continued, in another order:

Row | bioavailability [1] [%] | clearance [1] [mL/min/kg] | AUC [1] [µM·h] | half-life [1] [h] | IC50 [2] [µM] | SMILES | inhibition at 100 µM (TNF-α) [%]
9 | 33.8 | 13.6 | 11.4 | 2.96 | 1 to 10 | Cn1cnc2c1c(=O)n(Cc1ccc(C(C)(O)C(F)(F)F)cc1)c(=O)n2C (stereo not drawn) [Embodiment 27] | 60 to 80
10 |  |  |  |  | 10 to 50 | Cn1cnc2c1c(=O)n(CC1CCC(O)(C(F)(F)F)CC1)c(=O)n2C (stereo not drawn) [Embodiment 11, 1-((4-Hydroxy-4-(trifluoromethyl)cyclohexyl)methyl)-3,7-dimethyl-1H-purine-2,6(3H, 7H)-dione] | 60 to 80
11 | 95.8 | 21.5 | 17.8 | 2.18 | < 1 | Cn1c(=O)n(Cc2ccc(C(C)(O)C(F)(F)F)nc2)c(=O)c2c1ncn2CC1CC1 (stereo not drawn) [Embodiment 55, 7-(Cyclopropylmethyl)-3-methyl-1-((6-(1,1,1-trifluoro-2-hydroxypropan-2-yl)pyridin-3-yl)methyl)-1H-purine-2,6-(3H,7H)-dione] | 80 to 100
12 | 149 | 12.9 | 51.2 | 2.27 | 1 to 10 | Cn1cnc2c1c(=O)n(Cc1ccc(C(C)(O)C(F)(F)F)nc1)c(=O)n2C (stereo not drawn) [Embodiment 28] | 
13 | 42.6 | 71.6 | 2.49 | 0.56 | < 1 | Cn1c(=O)n(CC2CCC(O)(C(F)(F)F)CC2)c(=O)c2c1ncn2CC1CC1 (single isomer, unassigned) [Embodiment 50 isomer 2, 7-(Cyclopropylmethyl)-1-((4-hydroxy-4-(trifluoromethyl)cyclohexyl)methyl)-3-methyl-1H-purine-2,6(3H,7H)-dione] | 80 to 100
